US12447153B2, “HER2 mutation inhibitors” (Array BioPharma Inc., priority 2021, dated 2025)

What was measured:
EGFR wild type (EGFR WT) = EGFR wild type (EGFR WT) (Homo sapiens (Human), UniProt P00533); experiment: Cellular Phosphorylation Assay, Assay 5 (EGF-stimulated EGFR phosphorylation, NIH 3T3 cells); assay type: cell-based
BCRP = BCRP (Homo sapiens (Human), UniProt Q9UNQ0); experiment: BCRP MDCKII efflux assay (Assay 7); assay type: in vitro ADME; details: dog; efflux ratio Papp(B-A)/Papp(A-B), BCRP MDCKII cells; read-out: Assay 7 Pe Ratio
BCRP, sequence (Q9UNQ0 whole entry): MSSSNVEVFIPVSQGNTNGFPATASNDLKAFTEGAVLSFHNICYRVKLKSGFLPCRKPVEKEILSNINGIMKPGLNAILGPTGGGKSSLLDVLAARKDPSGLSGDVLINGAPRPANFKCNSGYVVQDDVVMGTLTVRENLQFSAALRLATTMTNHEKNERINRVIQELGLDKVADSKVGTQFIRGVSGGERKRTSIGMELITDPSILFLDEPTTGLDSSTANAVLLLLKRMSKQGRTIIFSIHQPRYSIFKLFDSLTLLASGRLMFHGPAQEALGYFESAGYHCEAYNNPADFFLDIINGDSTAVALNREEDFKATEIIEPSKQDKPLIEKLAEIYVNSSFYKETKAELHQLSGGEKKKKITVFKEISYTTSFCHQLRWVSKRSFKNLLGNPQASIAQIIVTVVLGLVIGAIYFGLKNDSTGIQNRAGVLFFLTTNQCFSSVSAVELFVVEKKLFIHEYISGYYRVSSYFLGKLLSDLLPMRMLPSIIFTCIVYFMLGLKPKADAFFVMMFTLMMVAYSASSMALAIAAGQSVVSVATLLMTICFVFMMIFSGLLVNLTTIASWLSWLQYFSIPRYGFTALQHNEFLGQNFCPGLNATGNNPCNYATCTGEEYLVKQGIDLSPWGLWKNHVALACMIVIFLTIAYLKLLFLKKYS
Experimental: Assay conditions included with and without the BCRP-specific inhibitor, KO143, at a concentration of 0.3 μM to ascertain the contribution of BCRP to the efflux value of the test compound.
Final organic concentration in the assay was 1%.

[1] = target: ErbB2 with Exon 20 YVMA insertion (HER2-YVMA) (Homo sapiens (Human), UniProt P04626, INS775YVMA); experiment: Cellular Phosphorylation Assay, Assay 4 (constitutive ErbB2 phosphorylation, NIH 3T3 cells); assay type: cell-based
ErbB2 with Exon 20 YVMA insertion (HER2-YVMA), sequence (P04626 other isoform, or with tags, fused parts or gaps ins YVMA behind 775): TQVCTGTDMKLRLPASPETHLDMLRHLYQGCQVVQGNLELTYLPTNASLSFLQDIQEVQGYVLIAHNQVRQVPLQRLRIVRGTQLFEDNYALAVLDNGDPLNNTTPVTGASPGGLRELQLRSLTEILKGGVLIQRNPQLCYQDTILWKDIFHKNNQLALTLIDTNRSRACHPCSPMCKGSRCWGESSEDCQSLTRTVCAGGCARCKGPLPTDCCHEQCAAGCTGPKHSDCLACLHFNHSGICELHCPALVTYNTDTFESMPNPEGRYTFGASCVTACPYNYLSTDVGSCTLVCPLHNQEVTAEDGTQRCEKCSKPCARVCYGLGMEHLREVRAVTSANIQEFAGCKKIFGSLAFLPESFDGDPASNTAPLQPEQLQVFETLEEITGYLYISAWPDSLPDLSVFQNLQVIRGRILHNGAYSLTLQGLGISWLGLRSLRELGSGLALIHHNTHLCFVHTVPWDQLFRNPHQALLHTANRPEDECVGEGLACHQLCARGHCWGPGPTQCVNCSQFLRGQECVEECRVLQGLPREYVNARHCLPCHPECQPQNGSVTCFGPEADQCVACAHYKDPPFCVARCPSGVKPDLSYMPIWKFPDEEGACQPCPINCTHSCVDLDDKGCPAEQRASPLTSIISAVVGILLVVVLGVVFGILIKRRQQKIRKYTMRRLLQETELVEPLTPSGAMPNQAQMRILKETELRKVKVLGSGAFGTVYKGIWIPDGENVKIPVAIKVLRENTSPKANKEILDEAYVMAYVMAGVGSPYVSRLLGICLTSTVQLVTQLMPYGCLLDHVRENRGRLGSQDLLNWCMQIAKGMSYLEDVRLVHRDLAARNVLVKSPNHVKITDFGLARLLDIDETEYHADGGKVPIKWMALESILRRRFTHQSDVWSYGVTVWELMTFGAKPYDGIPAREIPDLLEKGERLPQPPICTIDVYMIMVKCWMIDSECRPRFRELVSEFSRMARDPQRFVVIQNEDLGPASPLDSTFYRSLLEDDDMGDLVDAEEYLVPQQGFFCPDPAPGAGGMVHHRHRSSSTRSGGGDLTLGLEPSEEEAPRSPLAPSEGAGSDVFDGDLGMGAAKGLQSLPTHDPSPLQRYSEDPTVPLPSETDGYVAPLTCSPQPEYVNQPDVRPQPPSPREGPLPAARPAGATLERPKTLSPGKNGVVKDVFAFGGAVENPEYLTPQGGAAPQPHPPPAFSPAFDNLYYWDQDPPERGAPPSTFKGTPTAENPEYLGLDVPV

EGFR = EGFR (Homo sapiens (Human), UniProt P00533); experiment: ErbB Enzyme Assay (HTRF KinEASE-TK), Assay 3; assay type: biochemical
EGFR, sequence (P00533 25-1210): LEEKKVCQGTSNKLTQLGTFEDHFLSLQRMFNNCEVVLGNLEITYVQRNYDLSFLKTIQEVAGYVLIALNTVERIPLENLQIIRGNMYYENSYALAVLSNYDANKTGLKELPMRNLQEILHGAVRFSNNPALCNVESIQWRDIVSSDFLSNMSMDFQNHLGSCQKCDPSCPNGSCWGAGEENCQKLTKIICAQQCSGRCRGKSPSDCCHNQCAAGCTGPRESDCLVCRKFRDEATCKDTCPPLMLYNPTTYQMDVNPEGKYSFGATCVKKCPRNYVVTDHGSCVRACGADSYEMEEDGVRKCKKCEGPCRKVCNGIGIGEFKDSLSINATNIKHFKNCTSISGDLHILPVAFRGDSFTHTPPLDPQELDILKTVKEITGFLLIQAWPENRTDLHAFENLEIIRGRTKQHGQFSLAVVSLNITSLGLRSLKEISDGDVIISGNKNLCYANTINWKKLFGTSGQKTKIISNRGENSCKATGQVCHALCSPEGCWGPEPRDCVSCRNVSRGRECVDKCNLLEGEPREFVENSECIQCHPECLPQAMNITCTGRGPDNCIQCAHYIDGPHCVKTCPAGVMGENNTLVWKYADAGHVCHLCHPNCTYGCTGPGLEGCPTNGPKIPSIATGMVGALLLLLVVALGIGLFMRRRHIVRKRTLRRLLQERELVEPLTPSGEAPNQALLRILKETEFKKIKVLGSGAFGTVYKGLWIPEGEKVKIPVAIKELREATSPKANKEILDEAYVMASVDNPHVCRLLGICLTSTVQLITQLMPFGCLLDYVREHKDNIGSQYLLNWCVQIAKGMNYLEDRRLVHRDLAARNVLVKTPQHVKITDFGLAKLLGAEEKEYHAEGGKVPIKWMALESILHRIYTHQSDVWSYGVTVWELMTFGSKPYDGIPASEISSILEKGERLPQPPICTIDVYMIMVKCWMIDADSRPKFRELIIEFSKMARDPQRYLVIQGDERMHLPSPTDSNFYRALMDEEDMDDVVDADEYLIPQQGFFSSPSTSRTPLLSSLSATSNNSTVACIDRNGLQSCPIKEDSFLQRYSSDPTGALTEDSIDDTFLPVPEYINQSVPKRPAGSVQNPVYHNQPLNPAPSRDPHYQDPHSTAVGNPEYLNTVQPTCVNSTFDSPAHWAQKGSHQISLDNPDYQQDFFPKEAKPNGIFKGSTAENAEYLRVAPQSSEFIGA

ErbB2 WT = ErbB2 WT (Homo sapiens (Human), UniProt P04626); experiment: ErbB Enzyme Assay (HTRF KinEASE-TK), Assay 2; assay type: biochemical
[2] = EGF-stimulated EGFR WT phosphorylation
[3] = cellular EGFR WT phosphorylation, EGF-stimulated
[4] = cellular ErbB2 YVMA phosphorylation

EGFR wild type (EGFR WT), sequence (P00533 25-1210): as above

Row | SMILES | IC50 (EGFR wild type (EGFR WT); [2]) [nM] | efflux ratio at 2 h, 1 µM (BCRP) | IC50 ([1]; ErbB2 YVMA phosphorylation) [nM] | IC50 (EGFR; EGFR enzyme) [nM] | IC50 (ErbB2 WT; ErbB2 WT enzyme) [nM] | IC50 (EGFR wild type (EGFR WT); [3]) [nM] | IC50 [1, 4] [nM] | IC50 (EGFR; EGFR enzyme assay) [nM] | IC50 (ErbB2 WT; ErbB2 WT enzyme assay) [nM]
1 | C=CC(=O)N1CC[C@@H](c2ccc3ncnc(Nc4ccc(Oc5ccc6c(c5)ncn6C)c(C)c4F)c3n2)C1 (racemic) [Example 131, rac-(R)-1-(3-(4-((2-fluoro-3-methyl-4-((1-methyl-1H-benzo[d]imidazol-5-yl)oxy)phenyl)amino)pyrido[3,2-d]pyrimidin-6-yl)pyrrolidin-1-yl)prop-2-en-1-one] | 4760 | 6.4 | 9.6 | 2160 | 55.9 |  |  |  | 
2 | C=CC(=O)N1CC[C@@H](c2ccc3ncnc(Nc4cc(C)c(Oc5ccc6c(c5)ncn6C)cc4F)c3n2)C1 (racemic) [Example 132, rac-(R)-1-(3-(4-((2-fluoro-5-methyl-4-((1-methyl-1H-benzo[d]imidazol-5-yl)oxy)phenyl)amino)pyrido[3,2-d]pyrimidin-6-yl)pyrrolidin-1-yl)prop-2-en-1-one] | ≥ 5000 | 7.9 | 18.8 | ≥ 10000 | 75.9 |  |  |  | 
3 | C=CC(=O)N1CCCC[C@@H](c2ccc3ncnc(Nc4cc(C)c(Oc5ccc6c(c5)ncn6C)cc4F)c3n2)C1 (racemic) [Example 137, rac-(R)-1-(3-(4-((2-fluoro-5-methyl-4-((1-methyl-1H-benzo[d]imidazol-5-yl)oxy)phenyl)amino)pyrido[3,2-d]pyrimidin-6-yl)azepan-1-yl)prop-2-en-1-one] | 4370 | 1.9 | 16.8 | 2630 | 27.9 |  |  |  | 
4 | C=CC(=O)N1C[C@H](c2ccc3ncnc(Nc4cc(C)c(Oc5ccc6c(c5)ncn6C)cc4F)c3n2)CCC1(C)C (racemic) [Example 141, rac-(R)-1-(5-(4-((2-fluoro-5-methyl-4-((1-methyl-1H-benzo[d]imidazol-5-yl)oxy)phenyl)amino)pyrido[3,2-d]pyrimidin-6-yl)-2,2-dimethylpiperidin-1-yl)prop-2-en-1-one] | ≥ 5000 | 2.4 | 17.6 | ≥ 10000 | 180 |  |  |  | 
5 | C=CC(=O)N1CCN(c2ccc3ncnc(Nc4ccc(Oc5cnc6c(c5)ncn6C)c(C)c4F)c3n2)C[C@@H]1C(F)F (racemic) [Example 300] |  | 5.8 |  |  |  | 653 | 9.5 | 277 | 11.3
6 | C=CC(=O)N1C[C@@H]2CC[C@H]1CN(c1ccc3ncnc(Nc4ccc(Oc5ccn6ncnc6c5)c(C)c4F)c3n1)C2 (racemic) [Example 327] |  | 5.4 |  |  |  | 3500 | 9.3 | 1160 | 12.8
7 | C=CC(=O)N1CC[C@H]2CN(c3ccc4ncnc(Nc5cc(C)c(Oc6ccn7ncnc7c6)cc5F)c4n3)C[C@H]21 [Example 26, 1-((3aS,6aS)-5-(4-((4-([1,2,4]triazolo[1,5-a]pyridin-7-yloxy)-2-fluoro-5-methylphenyl)amino)pyrido[3,2-d]pyrimidin-6-yl)hexahydropyrrolo[3,4-b]pyrrol-1(2H)-yl)prop-2-en-1-one] | ≥ 5000 | 8.3 | 20.4 | ≥ 10000 | 121 |  |  |  | 
8 | C=CC(=O)N1CCN(c2ccc3ncnc(Nc4ccc(Oc5cnc6c(c5)ncn6C)c(Cl)c4)c3n2)CC1 [Example 33, 1-(4-(4-((3-chloro-4-((3-methyl-3H-imidazo[4,5-b]pyridin-6-yl)oxy)phenyl)amino)pyrido[3,2-d]pyrimidin-6-yl)piperazin-1-yl)prop-2-en-1-one] | 869 | 42.7 | 3.8 | 1150 | 15.8 |  |  |  | 
9 | C=CC(=O)N1CCC(c2ccc3ncnc(Nc4ccc(Oc5ccc6c(c5)ncn6C)c(C)c4)c3n2)CC1 [Example 34, 1-(4-(4-((3-methyl-4-((1-methyl-1H-benzo[d]imidazol-5-yl)oxy)phenyl)amino)pyrido[3,2-d]pyrimidin-6-yl)piperidin-1-yl)prop-2-en-1-one] | ≥ 5000 | 6.7 | 9.5 | 6870 | 28.7 |  |  |  | 
10 | C=CC(=O)N1CCN(c2nc3c(Oc4ccc(Oc5ccc6c(c5)ncn6C)c(C)c4)ncnc3cc2OC)CC1 [Example 41, 1-(4-(7-methoxy-4-(3-methyl-4-((1-methyl-1H-benzo[d]imidazol-5-yl)oxy)phenoxy)pyrido[3,2-d]pyrimidin-6-yl)piperazin-1-yl)prop-2-en-1-one] | ≥ 5000 | 16.7 | 31 | 5070 | 130 |  |  |  | 
11 | C=CC(=O)N1C2CC1CN(c1ccc3ncnc(Nc4ccc(Oc5ccn6ncnc6c5)c(C)c4F)c3n1)C2 [Example 47, 1-(3-(4-((4-([1,2,4]triazolo[1,5-a]pyridin-7-yloxy)-2-fluoro-3-methylphenyl)amino)pyrido[3,2-d]pyrimidin-6-yl)-3,6-diazabicyclo[3.1.1]heptan-6-yl)prop-2-en-1-one] | 2130 | 9.6 | 13.7 | 3720 | 60.9 |  |  |  | 
12 | C=CC(=O)N1C2CC1CN(c1ccc3ncnc(Nc4cc(C)c(Oc5ccc6c(c5)ncn6C)cc4F)c3n1)C2 [Example 48, 1-(3-(4-((2-fluoro-5-methyl-4-((1-methyl-1H-benzo[d]imidazol-5-yl)oxy)phenyl)amino)pyrido[3,2-d]pyrimidin-6-yl)-3,6-diazabicyclo[3.1.1]heptan-6-yl)prop-2-en-1-one] | ≥ 5000 | 10.2 | 16.6 | ≥ 10000 | 264 |  |  |  | 
13 | C=CC(=O)N1CCC(Sc2ccc3ncnc(Nc4ccc(Oc5ccc6c(c5)ncn6C)c(C)c4)c3n2)CC1 [Example 59, 1-(4-((4-((3-methyl-4-((1-methyl-1H-benzo[d]imidazol-5-yl)oxy)phenyl)amino)pyrido[3,2-d]pyrimidin-6-yl)thio)piperidin-1-yl)prop-2-en-1-one] | ≥ 5000 | 10.8 | 19 | 534 | 25.4 |  |  |  | 
14 | C=CC(=O)N1CC(Sc2ccc3ncnc(Nc4ccc(Oc5ccn6ncnc6c5)c(C)c4F)c3n2)C1 [Example 63, 1-(3-((4-((4-([1,2,4]triazolo[1,5-a]pyridin-7-yloxy)-2-fluoro-3-methylphenyl)amino)pyrido[3,2-d]pyrimidin-6-yl)thio)azetidin-1-yl)prop-2-en-1-one] | 426 | 3.8 | 19.5 | 508 | 31.4 |  |  |  | 
15 | C=CC(=O)N1CCC2CN(c3ccc4ncnc(Nc5ccc(Oc6ccn7ncnc7c6)c(Cl)c5)c4n3)CC21 (stereo not shown) [Example 70, 1-(5-(4-((4-([1,2,4]triazolo[1,5-a]pyridin-7-yloxy)-3-chlorophenyl)amino)pyrido[3,2-d]pyrimidin-6-yl)hexahydropyrrolo[3,4-b]pyrrol-1(2H)-yl)prop-2-en-1-one] | ≥ 5000 | 41.8 | 21.6 | 2950 | 10 |  |  |  | 
16 | C=CC(=O)N1CCN(c2ccc3ncnc(Nc4ccc(Oc5ccc6c(c5)ncn6C)c(Cl)c4)c3n2)CC1 [Example 72, 1-(4-(4-((3-chloro-4-((1-methyl-1H-benzo[d]imidazol-5-yl)oxy)phenyl)amino)pyrido[3,2-d]pyrimidin-6-yl)piperazin-1-yl)prop-2-en-1-one] | 511 | 15.4 | 4.7 | 880 | 8.7 |  |  |  | 
17 | C=CC(=O)N1CCN(c2ccc3ncnc(Nc4ccc(Oc5ccn6ncnc6c5)c(Cl)c4)c3n2)CC1(C)C [Example 74, 1-(4-(4-((4-([1,2,4]triazolo[1,5-a]pyridin-7-yloxy)-3-chlorophenyl)amino)pyrido[3,2-d]pyrimidin-6-yl)-2,2-dimethylpiperazin-1-yl)prop-2-en-1-one] | 298 | 6.4 | 5.7 | 1710 | 9.2 |  |  |  | 
18 | C=CC(=O)N1CCN(c2ccc3ncnc(Nc4ccc(Oc5ccc6c(c5)ncn6C)c(C)c4F)c3n2)CC1(C)C [Example 75, 1-(4-(4-((2-fluoro-3-methyl-4-((1-methyl-1H-benzo[d]imidazol-5-yl)oxy)phenyl)amino)pyrido[3,2-d]pyrimidin-6-yl)-2,2-dimethylpiperazin-1-yl)prop-2-en-1-one] | ≥ 5000 | 3.8 | 13.7 | ≥ 10000 | 65.2 |  |  |  | 
19 | C=CC(=O)N1CCN(c2ccc3ncnc(Nc4ccc(Oc5ccn6ncnc6c5)c(C)c4)c3n2)CC1(C)C [Example 77, 1-(4-(4-((4-([1,2,4]triazolo[1,5-a]pyridin-7-yloxy)-3-methylphenyl)amino)pyrido[3,2-d]pyrimidin-6-yl)-2,2-dimethylpiperazin-1-yl)prop-2-en-1-one] | 874 | 11.6 | 9.3 | 2550 | 9 |  |  |  | 
20 | C=CC(=O)N1C[C@@H]2C[C@H]1CN2c1ccc2ncnc(Nc3cc(Cl)c(Oc4ccn5ncnc5c4)cc3F)c2n1 [Example 80, 1-((1S,4S)-5-(4-((4-([1,2,4]triazolo[1,5-a]pyridin-7-yloxy)-5-chloro-2-fluorophenyl)amino)pyrido[3,2-d]pyrimidin-6-yl)-2,5-diazabicyclo[2.2.1]heptan-2-yl)prop-2-en-1-one] | 246 | 12.4 | 4.1 | 218 | 17 |  |  |  | 
